# Data: patent US20220023381A1, “VDAC INHIBITORS FOR TREATING AUTOIMMUNE DISEASES” (NATIONAL INSTITUTE FOR BIOTECHNOLOGY IN THE NEGEV LTD., priority 2018, published 2022)
# Columns and labels:
# [1] = tested on: PTP; test: Mitochondrial swelling assay (PTP opening); conditions: purified mitochondria, Ca2+-induced swelling
# Description: (§1) The PTP opening was analyzed following mitochondria swelling. Briefly, freshly isolated mitochondria (0.5 mg/ml) were incubated for 2 min at 24° C. with the indicated concentrations of VBIT-4 for Ca^2+-induced mitochondrial swelling assay. Swelling was initiated by the addition of Ca^2+ (0.1 mM) to the sample cuvette. Absorbance changes at 520 nm were monitored every 16 s for 15 min. Cyclosporine A 10 μM) was used as a positive control. […] Ca^2+ accumulation by freshly isolated rat liver mitochondria (0.5 mg/ml) was assayed with the indicated concentrations of VBIT-4 in the presence of […] CaCl2) (containing [^45Ca^2+]), 220 mM mannitol, 70 mM sucrose, 5 mM succinate, 0.15 mM Pi and 15 mM Tris/HCl, pH 7.2. Ca^2+ uptake was terminated by rapid Millipore filtration (0.45 μm).
# [2] = tested on: rat liver mitochondria; test: Ca2+ accumulation by isolated mitochondria; conditions: purified mitochondria
# Description: as §1
# [3] = biological target: T1, VDAC1 (Rattus norvegicus, UniProt Q9Z2L0); test: mtDNA efflux from liposomes reconstituted with VDAC1; type: biochemical; conditions: VDAC1-containing mtDNA-loaded liposomes
# T1 construct: from tissue; host or cells: rat liver mitochondria (inferred)
# [4] = biological target: T1, VDAC1; test: Micro-scale thermophoresis (MST) interaction with VDAC1; type: binding; conditions: without prior exposure to high voltage
# [5] = tested on: MRL/lpr mice; test: MRL/lpr lupus-prone mouse model; type: in vivo
# Description: All experiments were approved by the ACUC (Animal Care and Use Committee) of the NIH/NHLBI. Lupus-prone female MRL/MpJ-Fas^lpr/J mice (stock #000485, n=10 in each group), used as a model to determine the etiology of systemic lupus erythematosus (SLE), were purchased from The Jackson Laboratory. VIBIT4 was freshly dissolved in DMSO and diluted in water (final pH 5.0). The mice were treated with a daily dose of VBIT-4 (20 mg/kg) or vehicle in drinking water for 5 weeks, beginning at 11 weeks of age until euthanasia at 16 weeks of age. Blood and urine samples were collected when the mice were 16 weeks of age. The body weight of the mice was measured before and after VBIT-4 administration (at 11 and 16 weeks of age).
# Proteinuria in fresh urine was measured using creatinine and albumin ELISA kits (Exocell), and mouse albumin was used to determine the proteinuria:creatinine ratio following the manufacturer's instructions.
# Circulating mtDNA was isolated from 500 μl of serum using QIAamp Circulating Nucleic Acid Kit (Qiagen) according to the manufacturer's protocol. Briefly, serum samples were incubated with proteinase K and carrier RNA at 55° C. for 30 min in lysis buffer, and the circulating nucleic acids were bound to the silica membrane by applying vacuum pressure. After washing, the eluted samples were used for real-time RT-PCR. Primers of the mtDNA D-loop3 regions were used to quantify serum mtDNA. Anti-dsDNA antibodies were detected at 1:200 serum dilution using an ELISA kit (Alpha Diagnostic).
# Kidneys were harvested after perfusion with PBS from MRL/lpr mice. Frozen kidney sections were fixed in cold acetone for 20 min, washed, and blocked for 18 h at 4° C. with 4% BSA in PBS. To detect glomerular deposits, the sections were stained with FITC-conjugated anti-mouse C3 antibody (GC3-90E-Z, Immunology Consultants Laboratory) and Alexa Fluor 594-conjugated anti-Mouse IgG antibody (A-11020, Invitrogen) with Hoechst staining at 1:100 dilution (Life Technologies) for 1 h at room temperature. After washing with PBS, the tissues were mounted, and the slides were observed using a LSM880 laser confocal microscope. The fluorescence intensity score was determined after analyzing random images for each animal in a blinded manner.
# [6] = tested on: human PBMCs; test: A23187-induced mitochondrial ROS (MitoSOX); type: cell-based; conditions: VBIT-4 (5 μM), A23187 (25 μM), 1 h
# Description: Cellular cGAMP levels were measured by LC/MS (Agilent Technologies) using 5% perchloric acid extracts of WT and EndoG^−/− MEFs. Intracellular ROS production in MEFs was measured using the oxidative stress indicator CM-H2DCFDA (Invitrogen) with flow cytometry (FACS). Mitochondrial ROS in MEFs was evaluated using the mitochondrial superoxide indicator MitoSOX (Invitrogen) with a confocal microscope (LSM880, Zeiss, and the fluorescence intensity was measured using Zen software (Zeiss). To quantify mitochondrial ROS in human PBMCs, the cells were obtained from heparinized blood using a Ficoll-Paque gradient. The cells were washed with PBS, resuspended in RPMI 1640 medium, and transferred to 96-well plates. Subsequently, the cells were stimulated with calcium ionophore A23187 (25 μM), VBIT-4 (5 μM), and MitoSOX (2 μM) (Life Technologies). After 1 h at 37° C., the fluorescence was measured at 510/595 nm using a microplate reader (Synergy HTX; BIOTEK). Cells without dye were used as the blank control.
# [7] = tested on: low-density granulocytes (LDG) and normal-density granulocytes (NDG); test: NET formation (NETosis) in granulocytes; type: cell-based, human
# Description: Normal-density granulocytes (NDGs) were isolated from heparinized venous blood using a Ficoll-Paque gradient (GE Healthcare) with dextran (Sigma-Aldrich) sedimentation, followed by red blood cell lysis using hypotonic NaCl. From the PBMC layer, low-density granulocytes (LDGs) were isolated using a negative selection method. The cells were resuspended in RPMI 1640 medium for further characterization. NETs were induced in NDGs by incubating cells with calcium ionophore A23187 (25 μM) (Thermo Fisher) in RPMI 1640 medium for 2 h, and NETs were quantified using SYTOX fluorescent dye at 485/520 nm to quantify extracellular DNA. The fluorescence of PicoGreen (Life Technologies) at t=0 min was measured at 485/520 nm […] to quantify the total DNA. The fluorescence was quantified using a microplate reader (Synergy HTX; BIOTEK). NETs were also quantified by fluorescence microscopy. Briefly, the cells were attached to coverslip chambers, stimulated for 90 min at 37° C. with calcium ionophore, fixed with 4% paraformaldehyde overnight at 4° C., and permeabilized with 0.2% Triton X-100 for 10 min, followed by 0.5% gelatin for 20 min. The cells were stained with antibodies against human neutrophil elastase (ab21595, Abcam) for 2 h at room temperature, washed in PBS, and stained with Hoechst 33342 (Life Technologies) and Alexa Fluor 488 secondary antibody (A31570, Life Technologies) for 2 h at room temperature. After mounting, the cells were visualized with a LSM780 confocal microscope.
# [8] = VBIT-4 20 mg/kg daily in drinking water, 5 weeks
# T1 sequence (Q9Z2L0 whole entry): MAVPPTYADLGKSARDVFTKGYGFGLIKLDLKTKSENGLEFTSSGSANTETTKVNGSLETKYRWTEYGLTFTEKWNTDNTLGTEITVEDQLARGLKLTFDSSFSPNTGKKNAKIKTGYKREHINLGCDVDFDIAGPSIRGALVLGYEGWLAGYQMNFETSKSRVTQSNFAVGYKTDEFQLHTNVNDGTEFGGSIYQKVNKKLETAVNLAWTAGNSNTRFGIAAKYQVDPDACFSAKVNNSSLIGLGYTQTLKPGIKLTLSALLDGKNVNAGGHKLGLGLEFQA
smiles,measurement,setting,value
"O=C(CC(CO)N1CCN(c2ccc(OC(F)(F)F)cc2)CC1)Nc1ccc(Cl)cc1 (stereo not drawn) [VBIT-4, N-(4-chlorophenyl)-4-hydroxy-3-(4-(4-(trifluoromethoxy)phenyl)-piperazin-1-yl)butanamide]",PTP opening,[1],did not prevent
same,Ca2+ uptake,[2],did not prevent
same,mtDNA release from liposomes,[3],decreased
same,interaction with VDAC1 measured by MST,[4],did show interaction
same,weight of spleen and lymph node,"[5]; 20 mg/kg daily, 5 weeks, at 16 weeks of age",reduced
same,renal immune complex deposition,"[5]; C3 and IgG in kidney glomeruli, compared with vehicle-treated mice",significantly diminished
same,alopecia of face and dorsal,[5]; [8],suppressed
same,development of skin lesions,[5]; [8],blocked
same,mortality,[5]; [8],did not cause any mortality
same,thickening of the epidermis that accompanies leukocyte infiltration,[5]; [8],blocked
same,change in body weight,"[5]; VBIT-4 20 mg/kg daily in drinking water, 5 weeks, 11 and 16 weeks of age",did not cause any mortality or change in body weight
same,proteinuria,"[5]; albumin:creatinine ratio, compared with vehicle-treated mice",significantly diminished
same,serum anti-dsDNA,[5]; compared with vehicle-treated mice,significantly diminished
same,cell-free mtDNA,"[5]; serum, compared with vehicle-treated mice",significantly diminished
same,ISG induction,"[5]; spleen, real-time PCR, compared with vehicle-treated mice",significantly diminished
same,A23187-induced mitochondrial ROS,[6]; healthy controls,decreased
same,A23187-induced mitochondrial ROS,[6]; lupus patients,decreased
same,NETosis,"[7]; LDG from lupus patients, spontaneous NET formation, VBIT-4 (5 μM), microscopy",strongly inhibited
same,NETosis,"[7]; NDG from healthy controls, SYTOX-PicoGreen plate assay",strongly inhibited
same,NETosis,"[7]; NDG from lupus patients, A23187-stimulated, microscopy",strongly inhibited
same,NETosis,"[7]; NDG from lupus patients, SYTOX-PicoGreen plate assay",strongly inhibited
